Key:
Assay in all cases: relative viability (nuclei count vs DMSO), 5 days (fraction); higher = more cells survive
A-427 = tested on: A-427
In short: (§1)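 Lung cancer cell lines were pin-tool dosed in 1536-well plates on the day after seeding, with either a lone drug or a fixed anchor-drug dose plus five library-drug doses (not always all listed) in √10 steps. Nuclei were counted on 4× images after 5 days. Relative viability is the ratio of treated-well to vehicle-well nuclei counts, with each value a median of duplicate plates.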

BEN = tested on: BEN
In short: as §1

COR-L23 = tested on: COR-L23
In short: as §1

EKVX = tested on: EKVX
In short: as §1

HARA = tested on: HARA
In short: as §1

LC-2-ad = tested on: LC-2-ad
In short: as §1

LCLC-103H = tested on: LCLC-103H
In short: as §1

LOU-NH91 = tested on: LOU-NH91
In short: as §1

LU99A = tested on: LU99A
In short: as §1

NCI-H1650 = tested on: NCI-H1650
In short: as §1

NCI-H1666 = tested on: NCI-H1666
In short: as §1

NCI-H1793 = tested on: NCI-H1793
In short: as §1

NCI-H1915 = tested on: NCI-H1915
In short: as §1

NCI-H1944 = tested on: NCI-H1944
In short: as §1

NCI-H2087 = tested on: NCI-H2087
In short: as §1

NCI-H2170 = tested on: NCI-H2170
In short: as §1

NCI-H2228 = tested on: NCI-H2228
In short: as §1

NCI-H3122 = tested on: NCI-H3122
In short: as §1

NCI-H322M = tested on: NCI-H322M
In short: as §1

NCI-H520 = tested on: NCI-H520
In short: as §1

NCI-H727 = tested on: NCI-H727
In short: as §1

PC-14 = tested on: PC-14
In short: as §1

PC-3 [JPC-3] = tested on: PC-3 [JPC-3]
In short: as §1

SK-LU-1 = tested on: SK-LU-1
In short: as §1

Compound: C=C1C(=O)O[C@@H](CCCCCCCC)[C@@H]1C(=O)O [C-75] + O=C(CCCCCCC(=O)Nc1ccccc1)NO [Vorinostat] (partner 1 µM)
- relative viability (A-427; first compound 0.08 µM): 0.851
- relative viability (A-427; first compound 0.253 µM): 0.822
- relative viability (A-427; first compound 0.8 µM): 0.615
- relative viability (A-427; first compound 2.53 µM): 0.755
- relative viability (A-427; first compound 8 µM): 0.852
- relative viability (BEN; first compound 0.08 µM): 0.642
- relative viability (BEN; first compound 0.253 µM): 0.574
- relative viability (BEN; first compound 0.8 µM): 0.524
- relative viability (BEN; first compound 2.53 µM): 0.647
- relative viability (BEN; first compound 8 µM): 0.606
- relative viability (COR-L23; first compound 0.08 µM): 0.507
- relative viability (COR-L23; first compound 0.253 µM): 0.408
- relative viability (COR-L23; first compound 0.8 µM): 0.446
- relative viability (COR-L23; first compound 2.53 µM): 0.37
- relative viability (COR-L23; first compound 8 µM): 0.327
- relative viability (EKVX; first compound 0.08 µM): 0.725
- relative viability (EKVX; first compound 0.253 µM): 0.827
- relative viability (EKVX; first compound 0.8 µM): 0.654
- relative viability (EKVX; first compound 8 µM): 0.728
- relative viability (HARA; first compound 0.08 µM): 0.598
- relative viability (HARA; first compound 0.253 µM): 0.258
- relative viability (HARA; first compound 0.8 µM): 0.415
- relative viability (HARA; first compound 2.53 µM): 0.537
- relative viability (HARA; first compound 8 µM): 0.438
- relative viability (LC-2-ad; first compound 0.08 µM): 0.72
- relative viability (LC-2-ad; first compound 0.253 µM): 0.717
- relative viability (LC-2-ad; first compound 0.8 µM): 0.681
- relative viability (LC-2-ad; first compound 2.53 µM): 0.689
- relative viability (LC-2-ad; first compound 8 µM): 0.666
- relative viability (LCLC-103H; first compound 0.08 µM): 0.736
- relative viability (LCLC-103H; first compound 0.253 µM): 0.758
- relative viability (LCLC-103H; first compound 0.8 µM): 0.708
- relative viability (LCLC-103H; first compound 2.53 µM): 0.664
- relative viability (LCLC-103H; first compound 8 µM): 0.765
- relative viability (LOU-NH91; first compound 0.08 µM): 0.939
- relative viability (LOU-NH91; first compound 0.253 µM): 0.939
- relative viability (LOU-NH91; first compound 0.8 µM): 0.828
- relative viability (LOU-NH91; first compound 8 µM): 0.898
- relative viability (LU99A; first compound 0.08 µM): 0.476
- relative viability (LU99A; first compound 0.253 µM): 0.549
- relative viability (LU99A; first compound 0.8 µM): 0.413
- relative viability (LU99A; first compound 2.53 µM): 0.552
- relative viability (LU99A; first compound 8 µM): 0.495
- relative viability (NCI-H1650; first compound 0.08 µM): 0.597
- relative viability (NCI-H1650; first compound 0.253 µM): 0.751
- relative viability (NCI-H1650; first compound 0.8 µM): 0.665
- relative viability (NCI-H1650; first compound 8 µM): 0.463
- relative viability (NCI-H1666; first compound 0.08 µM): 1.05
- relative viability (NCI-H1666; first compound 0.253 µM): 1.3
- relative viability (NCI-H1666; first compound 0.8 µM): 0.895
- relative viability (NCI-H1666; first compound 8 µM): 0.913
- relative viability (NCI-H1793; first compound 0.08 µM): 0.674
- relative viability (NCI-H1793; first compound 0.253 µM): 1.01
- relative viability (NCI-H1793; first compound 2.53 µM): 0.425
- relative viability (NCI-H1793; first compound 8 µM): 0.751
- relative viability (NCI-H1915; first compound 0.08 µM): 0.506
- relative viability (NCI-H1915; first compound 0.253 µM): 0.548
- relative viability (NCI-H1915; first compound 0.8 µM): 0.526
- relative viability (NCI-H1915; first compound 2.53 µM): 0.475
- relative viability (NCI-H1915; first compound 8 µM): 0.536
- relative viability (NCI-H1944; first compound 0.08 µM): 0.571
- relative viability (NCI-H1944; first compound 0.253 µM): 0.591
- relative viability (NCI-H1944; first compound 0.8 µM): 0.475
- relative viability (NCI-H1944; first compound 2.53 µM): 0.42
- relative viability (NCI-H1944; first compound 8 µM): 0.483
- relative viability (NCI-H2087; first compound 0.08 µM): 0.683
- relative viability (NCI-H2087; first compound 0.253 µM): 0.586
- relative viability (NCI-H2087; first compound 0.8 µM): 0.666
- relative viability (NCI-H2087; first compound 2.53 µM): 0.635
- relative viability (NCI-H2087; first compound 8 µM): 0.541
- relative viability (NCI-H2170; first compound 0.08 µM): 0.803
- relative viability (NCI-H2170; first compound 0.253 µM): 0.961
- relative viability (NCI-H2170; first compound 0.8 µM): 0.714
- relative viability (NCI-H2170; first compound 2.53 µM): 0.697
- relative viability (NCI-H2170; first compound 8 µM): 0.808
- relative viability (NCI-H2228; first compound 0.08 µM): 0.617
- relative viability (NCI-H2228; first compound 0.253 µM): 0.681
- relative viability (NCI-H2228; first compound 0.8 µM): 0.661
- relative viability (NCI-H2228; first compound 2.53 µM): 0.67
- relative viability (NCI-H2228; first compound 8 µM): 0.562
- relative viability (NCI-H3122; first compound 0.08 µM): 1.02
- relative viability (NCI-H3122; first compound 0.253 µM): 1.6
- relative viability (NCI-H3122; first compound 0.8 µM): 1.01
- relative viability (NCI-H3122; first compound 2.53 µM): 0.578
- relative viability (NCI-H3122; first compound 8 µM): 0.989
- relative viability (NCI-H322M; first compound 0.08 µM): 0.859
- relative viability (NCI-H322M; first compound 0.253 µM): 1.32
- relative viability (NCI-H322M; first compound 0.8 µM): 0.851
- relative viability (NCI-H322M; first compound 8 µM): 0.847
- relative viability (NCI-H520; first compound 0.08 µM): 0.647
- relative viability (NCI-H520; first compound 0.253 µM): 0.716
- relative viability (NCI-H520; first compound 0.8 µM): 0.637
- relative viability (NCI-H520; first compound 2.53 µM): 0.577
- relative viability (NCI-H520; first compound 8 µM): 0.592
- relative viability (NCI-H727; first compound 0.08 µM): 1.22
- relative viability (NCI-H727; first compound 0.253 µM): 1.31
- relative viability (NCI-H727; first compound 0.8 µM): 0.973
- relative viability (NCI-H727; first compound 2.53 µM): 1.18
- relative viability (NCI-H727; first compound 8 µM): 1.23
- relative viability (PC-14; first compound 0.08 µM): 0.721
- relative viability (PC-14; first compound 0.253 µM): 0.741
- relative viability (PC-14; first compound 0.8 µM): 0.63
- relative viability (PC-14; first compound 2.53 µM): 0.61
- relative viability (PC-14; first compound 8 µM): 0.717
- relative viability (PC-3 [JPC-3]; first compound 0.08 µM): 0.837
- relative viability (PC-3 [JPC-3]; first compound 0.253 µM): 0.819
- relative viability (PC-3 [JPC-3]; first compound 0.8 µM): 0.415
- relative viability (PC-3 [JPC-3]; first compound 2.53 µM): 0.583
- relative viability (PC-3 [JPC-3]; first compound 8 µM): 0.764
- relative viability (SK-LU-1; first compound 0.08 µM): 0.782
- relative viability (SK-LU-1; first compound 0.253 µM): 0.724
- relative viability (SK-LU-1; first compound 0.8 µM): 0.698
- relative viability (SK-LU-1; first compound 2.53 µM): 0.752
- relative viability (SK-LU-1; first compound 8 µM): 0.59

Reference: the supplement of paper PMC10307832
